Laboratory results from patent publication US20090143279A1 (priority 2007, published 2009).
Where two headings read alike, the source gives them in different places.

Experiments:
[1] = tested on: C2C12 myotubes
[2] = tested on: cytochrome c; format: cell-based, mouse
[3] = tested on: cellular dehydrogenase activity
[4] = tested on: OXPHOS gene expression; format: cell-based, mouse
[5] = tested on: reactive oxygen species; format: cell-based, mouse
[6] = tested on: nuOXPHOS transcripts; format: cell-based, mouse
[7] = tested on: mitochondrial membrane potential; format: cell-based, mouse
[8] = tested on: mtOXPHOS transcripts; format: cell-based, mouse
[9] = composite Z-score vs DMSO wells, Conc 20 μM
[10] = composite Z-score vs DMSO, Conc 20 μM
[11] = 20 μM, composite Z-score vs DMSO
[12] = Conc 13.32 μM, normalized score vs mock-treated (DMSO) wells

Row | SMILES | Viability [1, 9] | cyt c [2, 9] | MTT [3, 9] | GE-HTS [4, 9] | ROS [5, 9] | nucOX [6, 9] | ΔΨm [7, 9] | mitoOX [8, 9] | Viability [1, 10] | cyt c [2, 10] | MTT [3, 10] | GE-HTS [4, 10] | ROS [5, 10] | nucOX [6, 10] | ΔΨm [7, 10] | mitoOX [8, 10] | also measured
1 | CCCC(=O)Nc1ccc(OCC(O)CNC(C)C)c(C(C)=O)c1 (stereo not drawn) [acebutolol] | −0.271 | 0.214 | −0.548 | −0.511 | 1.061 | −0.591 | 0.016 | −0.254 |  |  |  |  |  |  |  |  | cyt c [2]: −0.884
2 | CC(=O)Nc1ccc(OC(=O)c2ccccc2O)cc1 [acetaminosalol] | 0.144 | 0.465 | −0.142 | 0.083 | 0.308 | 0.145 | −0.707 | −0.060 |  |  |  |  |  |  |  |  | 
3 | COc1cc(C(C)=O)cc(OC)c1O [acetosyringone] |  |  |  |  |  |  |  |  | −0.432 | 0.310 | −1.266 | 0.029 | 0.269 | −0.040 | −0.370 | 0.201 | 
4 | CC(=O)Nc1c(I)cc(I)c(C(=O)O)c1I [acetriazoic acid] |  |  |  |  |  |  |  |  | 0.205 | −1.416 | −0.938 | −0.710 | 1.158 | −0.870 | −0.059 | −0.320 | 
5 | CC(=O)N[C@@H](CC(C)C)C(=O)O [acetyl-L-leucine] | −0.465 | 0.267 | −0.804 | 0.328 | 1.139 | 0.438 | −0.575 | 0.088 |  |  |  |  |  |  |  |  | 
6 | CC(=O)O[C@H](CC(=O)[O-])C[N+](C)(C)C [acetylcarnitine] | −0.980 | −0.192 | −1.275 | −1.051 | 0.476 | −1.015 | −0.930 | −0.943 |  |  |  |  |  |  |  |  | 
7 | CC(=O)OCC[N+](C)(C)C [acetylcholine] |  |  |  |  |  |  |  |  |  |  |  |  |  |  |  |  | Viability [1, 11]: −0.299; cyt c [2, 11]: −0.038; MTT [3, 11]: −0.712; GE-HTS [4, 11]: 0.358; ROS [5, 11]: 0.622; nucOX [6, 11]: 0.533; ΔΨm [7, 11]: −0.520; mitoOX [8, 11]: 0.014
8 | CC(=O)Oc1ccccc1C(=O)Oc1ccccc1C(=O)O [acetylsalicylsalicylic acid] |  |  |  |  |  |  |  |  |  |  |  |  |  |  |  |  | Viability (composite Z-score) [1, 12]: −0.840; cyt c (composite Z-score) [2, 12]: −0.200; MTT (composite Z-score) [3, 12]: −1.621; GE-HTS (composite Z-score) [4, 12]: −0.301; ROS (composite Z-score) [5, 12]: 0.399; nucOX (composite Z-score) [6, 12]: −0.249; ΔΨm (composite Z-score) [7, 12]: −0.808; mitoOX (composite Z-score) [8, 12]: −0.389
9 | CCN1C[C@]2(COC)[C@H](O)C[C@H](OC)[C@@]34[C@@H]5C[C@@]6(O)[C@H](OC(=O)c7ccccc7)[C@@H]5[C@@](OC(C)=O)([C@@H]([C@H](OC)[C@H]23)[C@@H]14)[C@@H](O)[C@@H]6OC [aconitine] |  |  |  |  |  |  |  |  | 0.132 | 0.751 | −0.584 | 0.169 | 1.038 | 0.356 | −0.073 | −0.198 | cyt c ([2]; composite Z-score vs mock-treated (DMSO) wells, concentration of each compound in μM): 1.609
10 | CC[C@@]1(O)C[C@H](O[C@H]2C[C@H](N(C)C)[C@H](O)[C@H](C)O2)c2c(cc3c(c2O)C(=O)c2c(O)cccc2C3=O)[C@H]1C(=O)OC [aklavine] | −2.971 | −5.658 | −6.213 | 0.706 | −2.347 | 0.430 | −3.626 | 1.063 |  |  |  |  |  |  |  |  | 
11 | NC(=O)c1ccc([N+](=O)[O-])cc1Cl [aklomide] | 0.408 | 0.510 | 1.426 | 0.378 | 0.061 | 0.594 | −0.447 | −0.136 |  |  |  |  |  |  |  |  | 
12 | CCCCC(CC)CNC(=N)NC(=N)NCCCCCCNC(=N)NC(=N)NCC(CC)CCCC (stereo not drawn) [alexidine] |  |  |  |  |  |  |  |  |  |  |  |  |  |  |  |  | Viability [1]: −4.805; Viability [1, 11]: −2.974; cyt c [2]: −3.201; cyt c [2, 11]: −3.981; MTT [3]: −5.432; MTT [3, 11]: −2.693; GE-HTS [4]: −1.696; GE-HTS [4, 11]: −0.288; ROS [5]: −4.270; ROS [5, 11]: −0.298; nucOX [6]: −1.387; nucOX [6, 11]: −0.289; ΔΨm [7]: −3.726; ΔΨm [7, 11]: −1.139; mitoOX [8]: −2.011; mitoOX [8, 11]: −0.150
13 | C[C@H](CCC(=O)O)[C@H]1CC[C@H]2[C@@H]3CC[C@H]4C[C@H](O)CC[C@]4(C)[C@H]3C[C@H](O)[C@]12C [allodeoxycholic acid] |  |  |  |  |  |  |  |  | −1.161 | −2.903 | −2.126 | −0.905 | −0.164 | −0.903 | 0.404 | −0.773 | 
